Test results: patent US10344025B2, “GLS1 inhibitors for treating disease” (Board of Regents, The University of Texas System, priority 2014, dated 2019)
Like-named read-outs stand apart in the source and are kept apart here.

Legend:
[1] = molecular target: purified recombinant human GAC (GLS1) (Homo sapiens (Human), UniProt O94925); experiment: GLS1 Enzymatic Activity Assay (dual-coupled enzymatic assay, resorufin/Amplex UltraRed readout); type: biochemical;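 also: glutamate from GAC coupled via glutamate oxidase and peroxidase to resorufin, read as fluorescence (ex 530, em 590 nm) kinetically or at 20 min, four-parameter logistic IC50 fit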
A549 cells = experiment: Proliferation Assay (A549 viability, Cell Titer Fluor, 72 hours); type: cell-based
Method in brief: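 A549 cells seeded at 1000 cells/well, rested 24 h, then exposed to compound in 0.5% DMSO for 72 h at 37 °C. Viability read by Cell Titer Fluor fluorescence; IC50 from four-parameter logistic fit.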

Sequence of purified recombinant human GAC (GLS1) (O94925 other isoform, or with tags, fused parts or gaps): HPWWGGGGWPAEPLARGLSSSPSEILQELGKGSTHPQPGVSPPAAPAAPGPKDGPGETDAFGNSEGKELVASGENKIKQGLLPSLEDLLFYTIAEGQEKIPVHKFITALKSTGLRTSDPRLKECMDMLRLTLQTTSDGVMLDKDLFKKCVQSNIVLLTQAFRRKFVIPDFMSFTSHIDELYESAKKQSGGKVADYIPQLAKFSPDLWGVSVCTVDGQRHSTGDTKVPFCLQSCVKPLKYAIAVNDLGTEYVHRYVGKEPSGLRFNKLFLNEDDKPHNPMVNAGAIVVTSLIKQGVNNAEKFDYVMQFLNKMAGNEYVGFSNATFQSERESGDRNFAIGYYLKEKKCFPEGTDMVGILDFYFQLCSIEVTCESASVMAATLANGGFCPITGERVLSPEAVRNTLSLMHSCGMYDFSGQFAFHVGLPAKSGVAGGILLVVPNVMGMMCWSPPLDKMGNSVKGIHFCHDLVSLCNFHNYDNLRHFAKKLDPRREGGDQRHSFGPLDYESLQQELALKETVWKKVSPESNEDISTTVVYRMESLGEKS

Row | Compound | IC50 [1] [nM] | EC50 (A549 cells; Homo sapiens, A549, 72 h) [nM] | EC50 (A549 cells; Homo sapiens) [nM] | EC50 (A549 cells) [nM]
1 | CC(C)CNC(=O)c1nnc(CCCCc2ccc(NC(=O)Cc3cccc(OC(F)(F)F)c3)nn2)s1 [Example 31, N-(2-methylpropyl)-5-[4-(6-{2-[3-(trifluoromethoxy)phenyl]acetamido}pyridazin-3-yl)butyl]-1,3,4-thiadiazole-2-carboxamide] | < 100 | < 100 |  | 
2 | O=C(Cc1cccc(OC(F)(F)F)c1)Nc1nnc(CCCCn2cc(C(=O)NCc3cccc(OC(F)(F)F)c3)nn2)s1 [Example 20, 1-[4-(5-{2-[3-(trifluoromethoxy)phenyl]acetamido}-1,3,4-thiadiazol-2-yl)butyl}-N-{[3-(trifluoromethoxy)phenyl]methyl}-1H-1,2,3-triazole-4-carboxamide] | < 100 | < 100 |  | 
3 | Cc1ccc(CC(=O)Nc2cn(CCC(F)Cn3cc(C(=O)NCc4cc(OC(F)(F)F)ccc4F)nn3)nn2)cn1 (stereo not drawn) [Example 405, 1-(2-fluoro-4-{4-[2-(6-methylpyridin-3-yl)acetamido]-1H-1,2,3-triazol-1-yl}butyl)-N-{[2-fluoro-5-(trifluoromethoxy)phenyl]methyl}-1H-1,2,3-triazole-4-carboxamide] | < 100 | < 100 |  | 
4 | O=C(CN1CCC(F)(F)CC1)Nc1cn(CCCCn2cc(C(=O)NCc3cccc(OC(F)(F)F)c3)nn2)nn1 [Example 332, 1-(4-(4-(2-(4,4-difluoropiperidin-1-yl)acetamido)-1H-1,2,3-triazol-1-yl)butyl)-N-(3-(trifluoromethoxy)benzyl)-1H-1,2,3-triazole-4-carboxamide] | < 100 |  | 100 to 500 | 
5 | CNC(=O)c1cn(CCC(F)Cn2cc(NC(=O)Cc3cc(OC(F)(F)F)ccc3F)nn2)nn1 (stereo not drawn) [Example 525, 1-[3-fluoro-4-(4-{2-[2-fluoro-5-(trifluoromethoxy)phenyl]acetamido}-1H-1,2,3-triazol-1-yl)butyl]-N-methyl-1H-1,2,3-triazole-4-carboxamide] | < 100 | 100 to 500 |  | 
6 | O=C(Cc1cc(OC(F)(F)F)ccc1F)Nc1ccc(CCCCn2cc(C(=O)NCc3ccccn3)nn2)nn1 [Example 585, 1-(4-(6-(2-(2-fluoro-5-(trifluoromethoxy)phenyl)acetamido)pyridazin-3-yl)butyl)-N-(pyridin-2-ylmethyl)-1H-1,2,3-triazole-4-carboxamide] | < 100 | < 100 |  | 
7 | CNC(=O)c1cn(C[C@@H](F)CCc2nnc(NC(=O)Cc3cccc(OC(F)(F)F)c3)s2)nn1 [Example 193, (S)-1-(2-fluoro-4-(5-(2-(3-(trifluoromethoxy)phenyl)acetamido)-1,3,4-thiadiazol-2-yl)butyl)-N-methyl-1H-1,2,3-triazole-4-carboxamide] | < 100 |  |  | 500 to 5000
8 | O=C(Cc1cccc(OC(F)(F)F)c1)Nc1nnc(CCCCn2cc(C(=O)N[C@@H](CO)c3ccccc3)nn2)s1 [Example 21, N-[(1R)-2-hydroxy-1-phenylethyl]-1-[4-(5-{2-[3-(trifluoromethoxy)phenyl]acetamido}-1,3,4-thiadiazol-2-yl)butyl]-1H-1,2,3-triazole-4-carboxamide] | < 100 | 100 to 500 |  | 
9 | O=C(NCc1cncc(C(F)(F)F)c1)c1cn(CC(F)CCc2nnc(C(=O)NCc3cccc(OC(F)(F)F)c3)s2)nn1 (stereo not drawn) [Example 482, 5-{3-fluoro-4-[4-({[5-(trifluoromethyl)pyridin-3-yl]methyl}carbamoyl)-1H-1,2,3-triazol-1-yl]butyl}-N-{[3-(trifluoromethoxy)phenyl]methyl}-1,3,4-thiadiazole-2-carboxamide] | < 100 | < 100 |  | 
10 | O=C(Cc1cc(OC(F)(F)F)ccc1F)Nc1nnc(CCC(F)Cn2cc(C(=O)NCc3cc(C(F)(F)F)ccn3)nn2)s1 (stereo not drawn) [Example 517, 1-[2-fluoro-4-(5-{2-[2-fluoro-5-(trifluoromethoxy)phenyl]acetamido}-1,3,4-thiadiazol-2-yl)butyl]-N-{[4-(trifluoromethyl)pyridin-2-yl]methyl}-1H-1,2,3-triazole-4-carboxamide] | < 100 | < 100 |  | 
11 | O=C(CN1CC(F)(F)C1)Nc1cn(CC(F)CCn2cc(C(=O)NCc3cc(C(F)(F)F)ccn3)nn2)nn1 (stereo not drawn) [Example 402, 1-(4-{4-[2-(3,3-difluoroazetidin-1-yl)acetamido]-1H-1,2,3-triazol-1-yl}-3-fluorobutyl)-N-{[4-(trifluoromethyl)pyridin-2-yl]methyl}-1H-1,2,3-triazole-4-carboxamide] | 100 to 500 | 500 to 5000 |  | 
12 | O=C(NCc1cc(OC(F)(F)F)ccc1F)c1cn(CCC(F)Cn2cc(C(=O)NCc3cncc(C(F)(F)F)c3)nn2)nn1 (stereo not drawn) [Example 479, 1-{2-fluoro-4-[4-({[2-fluoro-5-(trifluoromethoxy)phenyl]methyl}carbamoyl)-1H-1,2,3-triazol-1-yl]butyl}-N-{[5-(trifluoromethyl)pyridin-3-yl]methyl}-1H-1,2,3-triazole-4-carboxamide] | < 100 | < 100 |  | 
13 | CNC(=O)c1nnc(CCC(F)Cn2cc(C(=O)NCc3cc(OC(F)(F)F)ccc3F)nn2)s1 (stereo not drawn) [Example 555, 5-{3-fluoro-4-[4-({[2-fluoro-5-(trifluoromethoxy)phenyl]methyl}carbamoyl)-1H-1,2,3-triazol-1-yl]butyl}-N-methyl-1,3,4-thiadiazole-2-carboxamide] | < 100 | 100 to 500 |  | 
14 | O=C(CN1CC(F)(F)C1)Nc1cn(CC(F)CCn2cc(C(=O)NCc3cc(OC(F)(F)F)ccc3F)nn2)nn1 (stereo not drawn) [Example 390, 1-(4-{4-[2-(3,3-difluoroazetidin-1-yl)acetamido]-1H-1,2,3-triazol-1-yl}-3-fluorobutyl)-N-{[2-fluoro-5-(trifluoromethoxy)phenyl]methyl}-1H-1,2,3-triazole-4-carboxamide] | < 100 | < 100 |  | 
15 | CNC(=O)c1nnc(CCC(F)Cn2cc(C(=O)NCc3cccc(OC(F)(F)F)c3)nn2)s1 (stereo not drawn) [Example 504, 5-{3-fluoro-4-[4-({[3-(trifluoromethoxy)phenyl]methyl}carbamoyl)-1H-1,2,3-triazol-1-yl]butyl}-N-methyl-1,3,4-thiadiazole-2-carboxamide] | < 100 | 100 to 500 |  | 
16 | O=C(Cc1cccc(OC(F)(F)F)c1)Nc1nnc(CCC(F)Cn2cc(C(=O)NCC3CC3)nn2)s1 (stereo not drawn) [Example 535, N-(cyclopropylmethyl)-1-[2-fluoro-4-(5-{2-[3-(trifluoromethoxy)phenyl]acetamido}-1,3,4-thiadiazol-2-yl)butyl]-1H-1,2,3-triazole-4-carboxamide] | < 100 | 100 to 500 |  | 
17 | O=C(Cc1cc(OC(F)(F)F)ccc1F)Nc1ccc(CCCCn2cc(C(=O)NCC3CCO3)nn2)nn1 (stereo not drawn) [Example 582, 1-(4-(6-(2-(2-fluoro-5-(trifluoromethoxy)phenyl)acetamido)pyridazin-3-yl)butyl)-N-(oxetan-2-ylmethyl)-1H-1,2,3-triazole-4-carboxamide] | < 100 | 100 to 500 |  | 
18 | O=C(NCc1cc(C(F)(F)F)ccn1)c1cn(CC(F)CCc2nnc(C(=O)NCc3cccc(C(F)(F)F)n3)s2)nn1 (stereo not drawn) [Example 491, 5-{3-fluoro-4-[4-({[4-(trifluoromethyl)pyridin-2-yl]methyl}carbamoyl)-1H-1,2,3-triazol-1-yl]butyl}-N-{[6-(trifluoromethyl)pyridin-2-yl]methyl}-1,3,4-thiadiazole-2-carboxamide] | < 100 | < 100 |  | 
